From ChEMBL document CHEMBL4418498, “Halogenated benzotropolones as atg4b inhibitors” (2018)

What was measured:
[1] = biological target: T1, Cysteine protease ATG4B (Homo sapiens) (UniProt Q9Y4P1); test: Inhibition of Atg4B in human Jurkat T-cells assessed as reduction in everolimus-induced autophagy at […] incubated for 16 hrs by CYTO-ID-based phenotypical screening assay relative to control everolimus alone (reference value: 1 No unit); assay type: cell-based
T1 sequence (whole entry): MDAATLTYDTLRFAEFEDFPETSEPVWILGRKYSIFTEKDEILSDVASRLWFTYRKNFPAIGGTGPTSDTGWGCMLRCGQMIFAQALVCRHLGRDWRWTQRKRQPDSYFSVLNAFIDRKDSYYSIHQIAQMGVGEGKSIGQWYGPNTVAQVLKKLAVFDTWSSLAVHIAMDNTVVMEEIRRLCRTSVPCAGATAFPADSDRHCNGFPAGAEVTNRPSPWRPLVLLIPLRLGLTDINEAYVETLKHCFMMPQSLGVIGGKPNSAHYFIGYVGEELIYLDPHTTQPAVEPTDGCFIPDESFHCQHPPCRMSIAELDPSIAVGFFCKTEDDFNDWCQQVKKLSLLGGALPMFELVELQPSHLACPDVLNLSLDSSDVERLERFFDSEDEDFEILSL

[2] = Metabolic stability in mouse liver microsomes assessed as parent compound recovery after 30 mins in presence of NADPH regenerating system by LC-MS/MS analysis; assay type: ADME, Microsome; details: read-out: Drug recovery

| Ratio [1] | remaining at 0.5 h [2] [%] | SMILES |
| --- | --- | --- |
| 0.57 | – | Cn1cnc(N)c2ncnc1-2 |
| – | 100 | O=C(O)c1cc(O)c(=O)c2c(O)c(O)c(Br)cc2c1 |
